What all share (format): in vivo
The subject of assay [1] is Mycosphaerella graminicola=Septoria tritici. Put plainly: Fungicidal test for SEPTTR, speckled leaf blotch of wheat, one day protectant. The settings on record: 24 h, wheat plants (variety Monon), sprayed one day before inoculation. As for the experimental part:
The compounds identified in Table 4 were prepared using the procedures illustrated in the previous examples and these compounds were tested against wheat glume blotch and wheat leaf blotch using the protocols described herein. Fungicidal Test for […] Speckled Leaf Blotch of Wheat (Mycosphaerella graminicola=Septoria tritici; Bayer code […]): Wheat plants (variety Monon) were grown from seed in a greenhouse in 50% pasteurized soil/50% soil-less mix until the first true leaf was fully expanded, with 3-8 seedlings per pot. These plants were sprayed until wet with the formulated test compound at a rate of 25 ppm. On the following day, the leaves were inoculated with an aqueous spore suspension of Septoria tritici and the plants were kept in high humidity (one day in a dark dew chamber followed by four to seven days in a lighted dew chamber) to permit spores to germinate and infect the leaf The plants were then transferred to a greenhouse until disease developed on untreated control plants.

Assay [2] has as its system Leptosphaeria nodorum=Stagnospora nodorum. The assay is described as follows: Fungicidal test for LEPTNO, glume blotch of wheat, one day protectant. The conditions noted are these: 24 h, wheat plants (variety Yuma), sprayed one day before inoculation. On the procedure:
The compounds identified in Table 4 were prepared using the procedures illustrated in the previous examples and these compounds were tested against wheat glume blotch and wheat leaf blotch using the protocols described herein. Fungicidal Test for […] Each pot contained 3-20 seedlings. These plants were sprayed until wet with the formulated test compound at a rate of 25 ppm. On the following day, the leaves were inoculated with an aqueous spore suspension of Leptosphaeria nodorum and the plants were kept in high humidity (one day in a dark dew chamber followed by four to seven days in a lighted dew chamber) to permit spores to germinate and infect the leaf. The plants were then transferred to a greenhouse until disease developed on untreated control plants.

Assay [3] deals with cotton aphid (Aphis gossypi). The assay is described as follows: Cotton aphid foliar spray test on squash (CA 200). The settings on record: 72 h, squash cotyledons, 3 days, Corrected % Control (Abbott), read-out: CA 200: % control against cotton aphid in foliar spray tests. As for the experimental part:
The compounds identified in TABLE 2 were prepared using the procedures illustrated in the previous examples and these compounds were tested against beet armyworm, mosquito, fruit fly, and cotton aphid using protocols described after. […]
Squash with fully expanded cotyledon leaves were trimmed to one cotyledon per plant and infested with cotton aphid (wingless adult and nymph) 1 day prior to chemical application.
Each plant is examined before chemical application to ensure proper infestation (ca. 30-70 aphids per plant). Compounds (3 mg) were dissolved in 3 mL of acetone:methanol (50:50) solvent, forming stock solutions of 1000 ppm. The stock solutions were then diluted with 0.025% Tween 20 (in H2O) to make […]. A hand-held Devilbiss sprayer was used to apply the spray solutions until runoff to both sides of the squash cotyledon leaves. Four plants (4 replications) were used for each concentration of each compound. Reference plants (solvent check) were sprayed with 0.025% Tween 20 only. Treated plants were held in a holding room for 3 days at approximately 23° C. and 40% RH before the number of live aphids on each plant was recorded. Insecticidal activity was measured by Corrected % Control using Abbott's correction formula and presented in TABLE 2: Corrected % Control=100*(X−Y)/X • where X=No. of live aphids on solvent check plants • Y=No. of live aphids on treated plants

For assay [4], the system named is fruit fly (Drosophila melanogaster) adults. The assay is described as follows: Adult fruit fly mortality on artificial diet (DROSME). The conditions noted are these: 72 h, 4000 μg/ml, mortality three days after treatment, read-out: DROSME: % mortality against adult fruit fly on artificial diet. As for the experimental part: (§1) The compounds identified in TABLE 2 were prepared using the procedures illustrated in the previous examples and these compounds were tested against beet armyworm, mosquito, fruit fly, and cotton aphid using protocols described after.
(§2) Compounds were evaluated on mosquito (Aedes aegypti) larvae, beet armyworm (Spodoptera exigua) larvae, fruit fly (Drosophila melanogaster) adults and cotton aphid (Aphis gossypi). Newly hatched mosquito larvae (about 50 larvae/well) in 96-well microtiter plates in 230 ul of water containing powdered liver/yeast extract (1 gr/100 ml) were treated with 20 ppm solution of the test compound. Following treatment the plates were covered with a lid and mortality was determined three days after treatment. Beet armyworm eggs (about 5 per well) were placed on artificial diet (in a 96-well microtiter plate) treated with a 4000 ppm solution of a test compound in combination with piperonyl butoxide (in approximate ratio of 1:4). After infestation, the plates were covered with a lid and mortality was determined seven days following treatment. Five-day old fruit fly adults (about 5/well) were placed in deep-well microtiter plates containing 250 ul/well of a 2% agar-10% sucrose mixture that had been treated with a 4000 ppm solution of a test compound. Following infestation, the plates were covered with a lid and mortality was determined three days after treatment. Treatments for the mosquito and armyworm were replicated six times each, that of the fruit fly three times each.

Assay [5] deals with beet armyworm (Spodoptera exigua) larvae. Put plainly: Beet armyworm mortality on artificial diet (LAPHEG). The conditions noted are these: 168 h, 4000 μg/ml, with piperonyl butoxide (approx. 1:4), mortality seven days after treatment, read-out: LAPHEG: % mortality against beet armyworm on artificial diet. As for the experimental part:
as §1, §2

The test system of assay [6] is mosquito (Aedes aegypti) larvae. The assay is described as follows: Mosquito larvae mortality (AEDSAE). The settings on record: 72 h, 20 μg/ml, mortality three days after treatment, read-out: AEDSAE: % mortality against mosquito larvae. As for the experimental part: as §1, §2

Here are results for 16 compounds from patent US8338430B2, “N-substituted piperazines” (Dow AgroSciences, LLC., priority 2005, dated 2012).

Broadly, the mortality is the percentage killed.

The structures appear in SMILES notation.

With `CC(c1ccccc1)N1CCN(Cc2cccc(-n3cccc3)c2)CC1` (stereo not drawn) [Compound 234], the pest or weed control at 25 ppm was 1 to 25% in assay [1] and 50 to 100% in assay [2].

On to `FC(F)(F)c1ccccc1CCN1CCN(Cc2ccc3ccccc3c2)CC1` [Compound 80], for which the pest or weed control at 200 ppm in assay [3] fell in the range of 26 to 49%. Further, the mortality at 4000 µg/mL in assay [4] was in the range of 1 to 25%; in assay [5] it was 26 to 49%. Moreover, the pest or weed control at 25 ppm in assay [1] and in assay [2] was 50 to 100% throughout. Further, the mortality at 20 µg/mL in assay [6] fell in the range of 1 to 25%.

Consider `CCOCCN1CCN(Cc2ccc(OCc3ccccc3)cc2)CC1` [Compound 109], for which the pest or weed control at 25 ppm in assay [1] fell in the range of 50 to 100%; in assay [2] it was 1 to 25%.

On to `c1ccc(COc2ccc(CN3CCN(CCOc4ccccc4)CC3)cc2)cc1` [Compound 111], for which the pest or weed control at 25 ppm in assay [1] and in assay [2] was 50 to 100% in each case.

Consider `c1ccc(CCN2CCN(Cc3ccc(OCc4ccccc4)cc3)CC2)cc1` [Compound 112], for which the results for the pest or weed control at 25 ppm in assay [1] and in assay [2] were 50 to 100% and 1 to 25%, respectively.

With `c1ccc(CCN2CCN(Cc3ccccc3-c3ccccc3)CC2)cc1` [Compound 93], the pest or weed control at 200 ppm in assay [3] lay in the range of 1 to 25%. In addition, the values for the mortality at 4000 µg/mL in assay [4] and in assay [5] were 26 to 49% and 1 to 25%, respectively. The pest or weed control at 25 ppm in assay [1] lay in the range of 50 to 100%; in assay [2], 1 to 25%. The mortality at 20 µg/mL in assay [6] fell in the range of 1 to 25%.

For `O=C(C1CC1)N1CCN(Cc2ccc(OCc3ccccc3)cc2)CC1` [Compound 114], the pest or weed control at 25 ppm lay within 50 to 100% in assay [1] and 1 to 25% in assay [2].

As to `CC(c1ccccc1)N1CCN(Cc2csc3ccc(Cl)cc23)CC1` (stereo not drawn) [Compound 236], the figures for the pest or weed control at 25 ppm in assay [1] and in assay [2] were 1 to 25% and 50 to 100%, respectively.

Turning to `c1ccc(-c2ccccc2CN2CCN(CCc3ccccn3)CC2)cc1` [Compound 110], the results for the pest or weed control at 25 ppm in assay [1] and in assay [2] were 50 to 100% and 1 to 25%, respectively.

`FC(F)(F)c1ccccc1CCN1CCN(Cc2csc3ccc(Cl)cc23)CC1` [Compound 88]: the pest or weed control at 200 ppm in assay [3] lay within 50 to 100%. In addition, the mortality at 4000 µg/mL in assay [4] and in assay [5] was 1 to 25% in each case. Further, the values for the pest or weed control at 25 ppm in assay [1] and in assay [2] were 50 to 100% and 1 to 25%, respectively. For the same compound, the mortality at 20 µg/mL in assay [6] lay in the range of 1 to 25%.

In the case of `CC(c1ccccc1)N1CCN(Cc2ccc3ccccc3c2)CC1` (stereo not drawn) [Compound 187], the pest or weed control at 25 ppm in assay [1] and in assay [2] was 50 to 100% each time.

In the case of `FC(F)(F)c1ccccc1CCN1CCN(Cc2cccc(-n3cccc3)c2)CC1` [Compound 119], the pest or weed control at 25 ppm lay in the range of 26 to 49% in assay [1] and 50 to 100% in assay [2].

Consider `FC(F)(F)c1ccccc1CCN1CCN(Cc2ccc(Cl)s2)CC1` [Compound 81], for which the pest or weed control at 200 ppm in assay [3] lay within 50 to 100%. Also, the mortality at 4000 µg/mL in assay [4] and in assay [5] was 1 to 25% in each case. The pest or weed control at 25 ppm in assay [1] and in assay [2] was 50 to 100% throughout. Moreover, in assay [6], the mortality at 20 µg/mL was 1 to 25%.

On to `c1ccc(OCCN2CCN(Cc3ccccc3-c3ccccc3)CC2)cc1` [Compound 92], for which, in assay [3], the pest or weed control at 200 ppm is 1 to 25%. Also, the mortality at 4000 µg/mL in assay [4] lay in the range of 26 to 49%; in assay [5], 1 to 25%. Also, the pest or weed control at 25 ppm in assay [1] fell in the range of 1 to 25%; in assay [2], 50 to 100%. The mortality at 20 µg/mL in assay [6] lay within 1 to 25%.

`c1ccc(CCCN2CCN(Cc3ccc4ccccc4c3)CC2)cc1` [Compound 118]: the pest or weed control at 25 ppm in assay [1] and in assay [2] was 50 to 100% in each case.

On to `CC(=O)c1ccccc1C(=O)N1CCN(CCc2ccccc2C(F)(F)F)CC1` [Compound 105], for which, in assay [3], the pest or weed control at 200 ppm lay within 50 to 100%. Besides, the mortality at 4000 µg/mL in assay [4] and in assay [5] was 1 to 25% throughout. Moreover, the mortality at 20 µg/mL in assay [6] was 1 to 25%.
